Entries after “also recorded” stand apart in the source; their conditions may differ. Bridges are numbered along the chain shown (N, C = ends). Where no end group is shown, it is not given here.
How the values were obtained:
rα3β2 nAChR = biological target: T1, rα3β2 nAChR (Rattus norvegicus, UniProt P04757+P12390); test: ACh-evoked currents in Xenopus oocytes (TEVC), rα3β2; assay type: cell-based
T1 construct: expressed in transfected cells; host or cells: Xenopus laevis oocytes injected with cRNA

rα7 nAChR = biological target: T2, rα7 nAChR (Rattus norvegicus, UniProt Q05941); test: ACh-evoked currents in Xenopus oocytes (TEVC), rα7; assay type: cell-based
T2 construct: expressed in transfected cells; host or cells: Xenopus laevis oocytes injected with cRNA

rα9α10 nAChR = biological target: T3, rα9α10 nAChR (Rattus norvegicus, UniProt P43144+Q9JLB5); test: ACh-evoked currents in Xenopus oocytes (TEVC), rα9α10; assay type: cell-based
T3 construct: expressed in transfected cells; host or cells: Xenopus laevis oocytes injected with cRNA

rα6/α3β4 nAChR = biological target: T4, rα6/α3β4 nAChR (Rattus norvegicus, UniProt P04757+P12392+P43143); test: ACh-evoked currents in Xenopus oocytes (TEVC), rα6/α3β4; assay type: cell-based
T4 construct: expressed in transfected cells; host or cells: Xenopus laevis oocytes injected with cRNA

rα3β4 nAChR = biological target: T5, rα3β4 nAChR (Rattus norvegicus, UniProt P04757+P12392); test: ACh-evoked currents in Xenopus oocytes (TEVC), rα3β4; assay type: cell-based
T5 construct: expressed in transfected cells; host or cells: Xenopus laevis oocytes injected with cRNA

rα2β4 nAChR = biological target: T6, rα2β4 nAChR (Rattus norvegicus, UniProt P12389+P12392); test: ACh-evoked currents in Xenopus oocytes (TEVC), rα2β4; assay type: cell-based
T6 construct: expressed in transfected cells; host or cells: Xenopus laevis oocytes injected with cRNA

rα4β4 nAChR = biological target: T7, rα4β4 nAChR (Rattus norvegicus, UniProt P09483+P12392); test: ACh-evoked currents in Xenopus oocytes (TEVC), rα4β4; assay type: cell-based
T7 construct: expressed in transfected cells; host or cells: Xenopus laevis oocytes injected with cRNA

rα2β2 nAChR = biological target: T8, rα2β2 nAChR (Rattus norvegicus, UniProt P12389+P12390); test: ACh-evoked currents in Xenopus oocytes (TEVC), rα2β2; assay type: cell-based
T8 construct: expressed in transfected cells; host or cells: Xenopus laevis oocytes injected with cRNA

rα4β2 nAChR = biological target: T9, rα4β2 nAChR (Rattus norvegicus, UniProt P09483+P12390); test: ACh-evoked currents in Xenopus oocytes (TEVC), rα4β2; assay type: cell-based
T9 construct: expressed in transfected cells; host or cells: Xenopus laevis oocytes injected with cRNA

hα7 nAChR = biological target: T10, hα7 nAChR (Homo sapiens, UniProt P36544); test: ACh-evoked currents in Xenopus oocytes (TEVC), hα7; assay type: cell-based
T10 construct: expressed in transfected cells; host or cells: Xenopus laevis oocytes injected with cRNA

mα1β1δε nAChR = biological target: T11, mα1β1δε nAChR (Mus musculus, UniProt P02716+P04756+P09690+P20782); test: ACh-evoked currents in Xenopus oocytes (TEVC), mα1β1δε; assay type: cell-based
T11 construct: expressed in transfected cells; host or cells: Xenopus laevis oocytes injected with cRNA

TRPC1 = tested on: TRPC1; parameters: method as in doi.org/10.1016/j.toxicon.2006.09.030; conditions: ref doi.org/10.1016/j.toxicon.2006.09.030; cited from earlier work
[1] = tested on: neuronal tetrodotoxin-sensitive voltage-gated sodium channel of adult rat dorsal root ganglion neurons; conditions: cited from earlier work
[2] = tested on: tetrodotoxin-resistant voltage-gated sodium channel; conditions: cited from earlier work
Nav1.5 = tested on: Nav1.5; parameters: method as in earlier work; conditions: ref doi.org/10.1016/j.cub.2014.01.013; doi.org/10.1016/j.toxicon.2006.09.014; cited from earlier work
TRPA1 = tested on: TRPA1; parameters: method as in earlier work; conditions: ref doi.org/10.1016/j.cub.2014.01.013; doi.org/10.1016/j.toxicon.2006.09.014; cited from earlier work
Nav1.2 = tested on: Nav1.2; parameters: method as in earlier work; conditions: ref doi.org/10.1016/j.cub.2014.01.013; doi.org/10.1016/j.toxicon.2006.09.014; cited from earlier work
Nav1.7 = tested on: Nav1.7; parameters: method as in earlier work; conditions: ref doi.org/10.1016/j.cub.2014.01.013; doi.org/10.1016/j.toxicon.2006.09.014; cited from earlier work
Nav1.8 = tested on: Nav1.8; parameters: method as in earlier work; conditions: ref doi.org/10.1016/j.cub.2014.01.013; doi.org/10.1016/j.toxicon.2006.09.014; cited from earlier work
KVAP = tested on: KVAP; parameters: method as in doi.org/10.1038/nature01473; conditions: ref doi.org/10.1038/nature01473; cited from earlier work

T2 sequence (Q05941 23-502): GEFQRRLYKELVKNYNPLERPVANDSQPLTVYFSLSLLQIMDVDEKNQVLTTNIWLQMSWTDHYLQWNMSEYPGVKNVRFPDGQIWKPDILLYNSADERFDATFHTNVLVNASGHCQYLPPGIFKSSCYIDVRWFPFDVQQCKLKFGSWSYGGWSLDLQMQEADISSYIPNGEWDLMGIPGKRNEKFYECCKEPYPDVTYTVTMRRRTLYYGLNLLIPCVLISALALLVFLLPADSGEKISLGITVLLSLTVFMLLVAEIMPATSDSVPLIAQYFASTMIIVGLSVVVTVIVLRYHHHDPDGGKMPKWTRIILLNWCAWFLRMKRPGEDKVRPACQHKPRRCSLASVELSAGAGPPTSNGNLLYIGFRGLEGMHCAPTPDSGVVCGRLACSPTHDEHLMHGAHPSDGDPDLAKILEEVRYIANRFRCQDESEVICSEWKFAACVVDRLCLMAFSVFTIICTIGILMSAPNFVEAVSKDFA
T3 sequence (Q9JLB5 25-447): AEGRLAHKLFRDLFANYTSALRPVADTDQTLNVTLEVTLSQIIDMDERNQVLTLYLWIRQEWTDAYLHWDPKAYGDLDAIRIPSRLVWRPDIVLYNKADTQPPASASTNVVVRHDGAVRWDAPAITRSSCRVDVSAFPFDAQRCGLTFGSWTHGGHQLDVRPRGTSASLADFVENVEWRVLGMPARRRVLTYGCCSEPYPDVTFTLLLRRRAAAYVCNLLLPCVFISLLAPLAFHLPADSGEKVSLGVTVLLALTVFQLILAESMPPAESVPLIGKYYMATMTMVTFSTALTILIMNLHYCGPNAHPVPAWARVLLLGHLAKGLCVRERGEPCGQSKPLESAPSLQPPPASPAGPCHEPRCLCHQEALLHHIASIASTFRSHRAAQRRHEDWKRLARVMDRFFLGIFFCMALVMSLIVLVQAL
T3 sequence (P43144 26-479): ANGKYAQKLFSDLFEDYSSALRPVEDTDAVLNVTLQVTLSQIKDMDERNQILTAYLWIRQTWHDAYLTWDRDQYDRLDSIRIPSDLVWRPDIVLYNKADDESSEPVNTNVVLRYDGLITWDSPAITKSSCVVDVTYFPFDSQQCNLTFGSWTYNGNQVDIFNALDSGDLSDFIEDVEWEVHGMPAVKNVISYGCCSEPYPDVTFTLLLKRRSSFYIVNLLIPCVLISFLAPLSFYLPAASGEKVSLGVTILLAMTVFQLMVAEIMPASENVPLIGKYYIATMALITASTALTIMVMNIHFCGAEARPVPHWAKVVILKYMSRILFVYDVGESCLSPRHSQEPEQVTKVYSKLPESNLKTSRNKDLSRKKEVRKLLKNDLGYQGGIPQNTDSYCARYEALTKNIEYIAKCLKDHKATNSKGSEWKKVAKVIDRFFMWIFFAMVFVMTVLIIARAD
T10 sequence (P36544 23-502): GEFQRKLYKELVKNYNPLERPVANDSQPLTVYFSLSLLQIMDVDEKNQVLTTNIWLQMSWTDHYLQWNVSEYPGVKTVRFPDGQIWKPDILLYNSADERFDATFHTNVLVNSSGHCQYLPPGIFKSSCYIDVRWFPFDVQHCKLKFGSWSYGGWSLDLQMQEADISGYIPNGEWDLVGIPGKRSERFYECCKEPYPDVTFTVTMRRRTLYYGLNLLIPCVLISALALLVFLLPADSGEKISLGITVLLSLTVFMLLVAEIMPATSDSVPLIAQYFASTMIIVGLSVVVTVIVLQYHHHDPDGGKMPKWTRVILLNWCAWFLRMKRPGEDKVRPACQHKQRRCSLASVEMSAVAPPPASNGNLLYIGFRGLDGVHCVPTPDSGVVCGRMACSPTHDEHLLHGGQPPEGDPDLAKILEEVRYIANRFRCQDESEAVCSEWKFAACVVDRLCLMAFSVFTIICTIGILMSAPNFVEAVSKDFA
T11 sequence (P20782 21-493): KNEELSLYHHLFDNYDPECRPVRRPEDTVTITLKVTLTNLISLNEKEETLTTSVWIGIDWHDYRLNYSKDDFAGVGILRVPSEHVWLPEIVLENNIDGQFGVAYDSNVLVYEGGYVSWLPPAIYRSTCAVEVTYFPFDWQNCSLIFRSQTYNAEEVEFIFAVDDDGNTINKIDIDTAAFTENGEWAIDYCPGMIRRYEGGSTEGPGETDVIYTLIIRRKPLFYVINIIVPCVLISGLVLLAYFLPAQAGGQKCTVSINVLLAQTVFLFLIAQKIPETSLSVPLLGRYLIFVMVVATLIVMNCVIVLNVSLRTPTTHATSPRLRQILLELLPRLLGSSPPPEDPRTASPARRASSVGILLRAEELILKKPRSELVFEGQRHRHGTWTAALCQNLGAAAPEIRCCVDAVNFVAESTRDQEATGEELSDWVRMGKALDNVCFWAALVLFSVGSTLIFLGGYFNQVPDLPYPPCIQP
T11 sequence (P04756 21-457): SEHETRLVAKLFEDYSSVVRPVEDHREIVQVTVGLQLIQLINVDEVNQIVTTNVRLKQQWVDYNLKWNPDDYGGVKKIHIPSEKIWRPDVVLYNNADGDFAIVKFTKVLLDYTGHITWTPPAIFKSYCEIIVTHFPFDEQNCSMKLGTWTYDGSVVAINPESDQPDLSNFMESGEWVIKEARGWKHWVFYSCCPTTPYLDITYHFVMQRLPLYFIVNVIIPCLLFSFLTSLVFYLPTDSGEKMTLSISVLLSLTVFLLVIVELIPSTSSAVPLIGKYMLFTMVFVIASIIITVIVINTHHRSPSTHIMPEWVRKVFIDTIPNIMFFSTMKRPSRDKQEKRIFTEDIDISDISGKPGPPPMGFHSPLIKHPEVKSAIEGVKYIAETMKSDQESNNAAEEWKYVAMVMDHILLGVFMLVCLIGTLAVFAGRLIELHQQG
T11 sequence (P09690 24-501): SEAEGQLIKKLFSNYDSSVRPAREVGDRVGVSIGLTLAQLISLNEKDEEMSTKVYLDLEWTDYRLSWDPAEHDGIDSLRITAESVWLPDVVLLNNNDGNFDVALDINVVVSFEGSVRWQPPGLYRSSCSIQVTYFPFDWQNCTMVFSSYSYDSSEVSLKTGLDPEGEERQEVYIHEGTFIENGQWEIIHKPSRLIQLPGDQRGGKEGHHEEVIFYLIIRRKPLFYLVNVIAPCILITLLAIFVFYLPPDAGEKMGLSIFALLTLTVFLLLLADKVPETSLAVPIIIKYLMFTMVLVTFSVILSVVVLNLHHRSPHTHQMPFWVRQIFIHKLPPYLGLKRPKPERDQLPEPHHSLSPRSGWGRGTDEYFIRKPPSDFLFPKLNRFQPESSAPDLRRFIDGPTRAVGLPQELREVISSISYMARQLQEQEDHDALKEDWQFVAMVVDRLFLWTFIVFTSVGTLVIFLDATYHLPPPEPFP
T11 sequence (P02716 25-520): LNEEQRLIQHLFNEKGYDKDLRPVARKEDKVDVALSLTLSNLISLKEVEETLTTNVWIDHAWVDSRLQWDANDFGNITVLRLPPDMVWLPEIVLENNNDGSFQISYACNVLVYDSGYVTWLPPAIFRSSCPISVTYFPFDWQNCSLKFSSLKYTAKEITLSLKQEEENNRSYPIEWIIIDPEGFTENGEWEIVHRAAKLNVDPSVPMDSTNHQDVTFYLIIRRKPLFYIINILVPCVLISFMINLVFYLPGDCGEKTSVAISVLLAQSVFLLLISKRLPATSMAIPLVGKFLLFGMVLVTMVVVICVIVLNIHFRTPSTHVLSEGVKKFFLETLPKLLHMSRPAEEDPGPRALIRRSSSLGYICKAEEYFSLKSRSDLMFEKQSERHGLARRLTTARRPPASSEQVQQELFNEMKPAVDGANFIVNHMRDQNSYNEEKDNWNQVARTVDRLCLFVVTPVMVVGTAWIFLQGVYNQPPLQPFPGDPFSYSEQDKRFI
T5 sequence (P04757 26-499): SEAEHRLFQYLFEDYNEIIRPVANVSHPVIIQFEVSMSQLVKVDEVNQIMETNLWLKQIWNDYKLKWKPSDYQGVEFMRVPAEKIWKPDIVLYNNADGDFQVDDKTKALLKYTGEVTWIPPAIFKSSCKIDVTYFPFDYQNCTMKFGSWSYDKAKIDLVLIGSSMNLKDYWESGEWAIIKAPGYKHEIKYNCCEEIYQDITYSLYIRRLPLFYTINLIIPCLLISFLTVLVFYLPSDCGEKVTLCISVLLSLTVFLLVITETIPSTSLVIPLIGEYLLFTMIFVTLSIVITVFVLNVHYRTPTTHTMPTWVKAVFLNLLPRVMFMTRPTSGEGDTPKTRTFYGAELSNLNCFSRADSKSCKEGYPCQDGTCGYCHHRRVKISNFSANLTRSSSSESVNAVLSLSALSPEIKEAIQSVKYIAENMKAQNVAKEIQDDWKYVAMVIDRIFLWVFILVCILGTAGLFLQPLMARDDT
T5 sequence (P12392 21-495): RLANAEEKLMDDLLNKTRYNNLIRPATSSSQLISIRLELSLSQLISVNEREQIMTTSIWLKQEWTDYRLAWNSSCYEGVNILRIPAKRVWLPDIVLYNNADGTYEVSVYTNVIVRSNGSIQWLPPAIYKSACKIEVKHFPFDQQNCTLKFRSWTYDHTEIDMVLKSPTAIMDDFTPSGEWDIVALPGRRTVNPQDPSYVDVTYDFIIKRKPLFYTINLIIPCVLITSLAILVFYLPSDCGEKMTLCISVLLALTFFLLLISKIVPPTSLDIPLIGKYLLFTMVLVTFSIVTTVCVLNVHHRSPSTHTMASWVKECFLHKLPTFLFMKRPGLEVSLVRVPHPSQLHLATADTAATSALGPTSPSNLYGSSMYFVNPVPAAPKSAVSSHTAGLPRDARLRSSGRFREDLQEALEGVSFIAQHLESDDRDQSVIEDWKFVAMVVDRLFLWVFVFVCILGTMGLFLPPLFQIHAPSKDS

Substance: GCKKLNSYCTRQHRECCHGLVCRRPDYGIGRGILWKCTRARK (disulfide 2-17, 9-22, 16-37) [Ms11a-3]
- IC50 (rα3β2 nAChR): > 10 µM
- IC50 (rα7 nAChR): 4.79 µM
- Hill Slope (rα7 nAChR; mean (95% confidence interval)): 0.99 (0.59–1.40)
- functional potency (rα7 nAChR; towards α7 and heteromeric nAChRs): lowest potency
- IC50 (rα9α10 nAChR): 0.202 µM
- functional antagonism (rα9α10 nAChR; compared to the muscle and α7 receptors): highest antagonism; also recorded: effectively blocking the neuronal α9α10 and to a lesser extent muscle nAChR subtypes
- Hill Slope (rα9α10 nAChR; mean (95% confidence interval)): 0.71 (0.52–0.90)
- IC50 (rα6/α3β4 nAChR): > 10 µM
- IC50 (rα3β4 nAChR): 5.17 µM
- Hill Slope (rα3β4 nAChR; mean (95% confidence interval)): 0.84 (0.67–1.00)
- IC50 (rα2β4 nAChR): > 10 µM
- IC50 (rα4β4 nAChR): > 10 µM
- IC50 (rα2β2 nAChR): > 10 µM
- IC50 (rα4β2 nAChR): > 10 µM
- IC50 (hα7 nAChR): 8.87 µM
- Hill Slope (hα7 nAChR; mean (95% confidence interval)): 0.95 (0.30–1.61)
- IC50 (mα1β1δε nAChR): 1.21 µM
- Hill Slope (mα1β1δε nAChR; mean (95% confidence interval)): 1.35 (0.71–1.99)

Substance: GsMTx-4
- Target (that was in the corresponding Ref.) (TRPC1): TRPC1

Substance: HWTX-IV: Haplopelma schmidti toxin, PDB 1MB6
- IC50 [1]: 0.03 µM
- No (or weak) effect [2]: No (or weak) effect

Substance: ProTx-I
- Target (that was in the corresponding Ref.) (Nav1.5): Nav1.5
- IC50 (TRPA1): 0.389 ± 0.077 µM
- Target (that was in the corresponding Ref.) (Nav1.2): Nav1.2
- Target (that was in the corresponding Ref.) (Nav1.7): Nav1.7
- Target (that was in the corresponding Ref.) (Nav1.8): Nav1.8

Substance: VSTx1: Grammostola rosea toxin, PDB 2N1N (ECGKFMWKCKNSNDCCKDLVCSSRWKWCVLASPF; UniProt P60980 30-63, looked up)
- Target (that was in the corresponding Ref.) (KVAP): KVAP

Reference: publication PMC9866706 (Toxins, 2022)
